Source: paper PMC4240912, “Multifaceted interplay between lipophilicity, protein interaction and luminescence parameters of non-intercalative ruthenium(II) polypyridyl complexes controlling cellular imaging and cytotoxic properties” (Journal of Biological Inorganic Chemistry, 2014)
Like-named read-outs stand apart in the source and are kept apart here.

Assays:
[1] = system: 4T1 breast cancer cell line; assay: Alamar Blue cell viability, 4T1; assay type: cell-based; conditions: 4T1, 24 h incubation
Experimental: 4T1 breast cancer cell line was cultured in RPMI-1640 (Gibco Invitrogen) with 10 % fetal bovine serum (FBS, the bovine serum albumin is a major component), 1 % penicillin and streptomycin and 0.2 % fungizone. Cells were routinely cultured at 37 °C in a humidified incubator in 5 % CO2 atmosphere. Cell viability was measured using Alamar Blue assay. Cells were seeded on 96-well plate with density of 10^4 cells per cm^2 and cultured for 24 h in medium with or without 2 % serum. Then cells were incubated with various concentrations of ruthenium compounds for 24 h in the dark. All used ruthenium complexes were freshly diluted in DMSO and then added to the appropriate medium to obtain the applied concentrations. The final DMSO concentration was kept constant at 0.05 % (v/v). Next cells were washed with PBS and incubated in AlamarBlue solution (21 times diluted in PBS) for 3 h. Alamar Blue test is based on the reduction of blue and non-fluorescent subtract (resazurin) to a pink and highly fluorescent product (resorufin) by the alive cells. Extract mechanism of the reduction is still unknown, but it is postulated that reduction occurs by mitochondrial or cytoplasmic enzymes, such as NADH dehydrogenase or diaphorase. It is still not known whether this process occurs intracellularly, at the plasma membrane surface or just in the medium as a chemical reaction. The cell viability was quantified at 605 nm using 560 nm excitation light (VICTOR 3V multilabel plate readers, PerkinElmer). Experiments were performed in triplicates and each experiment was performed at least three times to get the mean values ± standard deviation. The viability was calculated with regard to the untreated cells control. The IC50 values were determined using Hill equation (Origin 9.0): y=y0+y100-y0c^H/IC50^H+c^H

[2] = target: T1, human serum albumin (HSA) (Homo sapiens, UniProt P02768); assay: HSA fluorescence quenching (protein-binding experiments); conditions: [HSA] = 1 μM, [Ru] 0–10 μM, PBS pH 7.4, 37 °C
Experimental: The protein stock solution was prepared by dissolving human serum albumin (HSA) in water and its concentration was determined spectrophotometrically from the molar absorptivity of 4.4 × 10^4 cm^−1 M^−1 at 280 nm. The emission spectra were recorded between 305 and 500 nm upon excitation at 295 nm resulting in selective excitation of tryptophan residue of HSA. The average of three scans was subjected to smoothing and the fluorescence intensities were corrected due to dilution effects. Protein-binding experiments were conducted by measuring fluorescence spectra of protein solution (1 μM) in the presence of different amounts of ruthenium compounds (0–10 μM) in PBS buffer pH 7.4 at 37 °C. Ru–protein solutions were allowed to incubate for 5 min before the emission spectra were recorded. The quantum yield and lifetime of luminescence for ruthenium complexes in the present of HSA (1 μM) was measured using the same procedure as described for ruthenium complexes alone (the HSA/Ru-complex ratio is given in the figure caption). […]
When molecules are bound to HSA, the change in fluorescence of HSA (Trp214) is induced ether by quenching by binding of molecules in close proximity of the residue or by conformational change of protein caused by the binding or other interactions. Albumin […]
polypyridyl complexes. The contribution to the observed emission from ruthenium complex is marginal. The Stern-Volmer equation has been employed for quantitative analysis of the […]
where F0 and F are the fluorescence intensities of HSA in the absence and the presence of quencher (Q, Ru complex), respectively; kq is the bimolecular quenching constant; τ0 is the average lifetime of the HSA in the absence of quencher (7 × 10-9 s), [Q] is the concentration of quencher, KSV is the Stern–Volmer constant. Since ruthenium complexes both absorb light at the excitation and the emission wavelengths in order to correlate the inner filter effect the following equation was used: where Fcor and F are the corrected/uncorrected fluorescence intensities of HSA, Aem and Aex are the absorbance value of the solution at the emission and the excitation wavelength […]
quenching involving some type of binding interaction between HSA and ruthenium complexes. In this case the Stern-Volmer constant can be consider as an association constant for formation of HSA-Ru-complexes adducts. […]
(also on this page, place not known: nm , Stern -Volmer ][1][1 0 0 QKQkF SVq ·+=·+= τ 10 -9 [ Q] Stern –Volmer es 210 exem AA cor FF + ·= F -binding ct -DNA ba nds complex w ith DNA)

4T1 cells [3] = assay: Ruthenium uptake measured by ICP-MS; assay type: cell-based; conditions: 4T1, [Ru-complex] = 2 µM, 24 h
Experimental: Cells were seeded on a 6-well plate with a density of 3 × 10^5 cells per cm^2. 24 h after the incubation ruthenium complexes were added at 2 µM concentration. Cells were incubated in medium without serum for 24 h. After incubation cells were washed twice with PBS, detached by trypsin (trypsin/EDTA from Gibco) treatment, diluted in PBS and counted. Cells were digested in concentrated nitric acid overnight at room temperature and then diluted with water. The ruthenium content of the sample was determined by the inductively coupled plasma mass spectrometry (ICP-MS). Results were calculated as ruthenium concentration per cell (assuming the average volume of cell was 1.7 pL [31]).

[4] = aqueous solution, ref [11], cited from earlier work
[5] = target: T1, human serum albumin (HSA); assay: Luminescence quantum yield and lifetime in the presence of HSA
Experimental: The protein stock solution was prepared by dissolving human serum albumin (HSA) in water and its concentration was determined spectrophotometrically from the molar absorptivity of 4.4 × 10^4 cm^−1 M^−1 at 280 nm. The emission spectra were recorded between 305 and 500 nm upon excitation at 295 nm resulting in selective excitation of tryptophan residue of HSA. The average of three scans was subjected to smoothing and the fluorescence intensities were corrected due to dilution effects. Protein-binding experiments were conducted by measuring fluorescence spectra of protein solution (1 μM) in the presence of different amounts of ruthenium compounds (0–10 μM) in PBS buffer pH 7.4 at 37 °C. Ru–protein solutions were allowed to incubate for 5 min before the emission spectra were recorded. The quantum yield and lifetime of luminescence for ruthenium complexes in the present of HSA (1 μM) was measured using the same procedure as described for ruthenium complexes alone (the HSA/Ru-complex ratio is given in the figure caption).

4T1 cells [6] = assay: Ruthenium uptake / cell luminescence measured by flow cytometry; assay type: cell-based; conditions: 4T1, [Ru-complex] = 2 µM, 24 h, medium without or with serum (2 %)
Experimental: 4T1 cells were seeded in a 24-well plate with a density of 2 × 10^5 cells per cm^2. 24 h after the seeding Ru(II) compounds were added at 2 µM concentration and incubated for 24 h in medium with or without serum (2 %). Then cells were washed with PBS, detached by trypsin treatment and analyzed by BDLSR cytometer with an excitation wavelength of 488 nm and an emission wavelength of 575 ± 13 nm.

T1 sequence (P02768 25-609): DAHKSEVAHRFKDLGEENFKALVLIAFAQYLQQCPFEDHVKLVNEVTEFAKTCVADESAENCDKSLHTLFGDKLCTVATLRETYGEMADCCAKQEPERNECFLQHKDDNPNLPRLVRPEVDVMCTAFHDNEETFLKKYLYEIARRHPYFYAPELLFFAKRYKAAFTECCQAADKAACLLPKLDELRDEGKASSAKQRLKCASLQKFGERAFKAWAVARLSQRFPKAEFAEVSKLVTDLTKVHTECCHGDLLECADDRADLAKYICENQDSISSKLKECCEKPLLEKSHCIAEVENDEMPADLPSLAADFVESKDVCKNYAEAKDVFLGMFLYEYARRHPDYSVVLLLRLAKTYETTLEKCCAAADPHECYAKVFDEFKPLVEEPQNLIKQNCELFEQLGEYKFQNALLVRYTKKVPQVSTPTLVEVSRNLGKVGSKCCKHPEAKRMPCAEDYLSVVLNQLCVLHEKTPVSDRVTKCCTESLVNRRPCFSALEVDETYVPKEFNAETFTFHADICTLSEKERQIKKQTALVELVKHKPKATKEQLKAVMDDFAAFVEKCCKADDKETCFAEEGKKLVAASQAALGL

φ, quantum yield of luminescence ([5]; PBS pH 7.4, [HSA]/[Ru] = 1)	φ, quantum yield of luminescence ([5]; PBS pH 7.4, in the absence of HSA)	Compound	IC50 ([1]; medium with serum (2 %)) [µM]	IC50 ([1]; medium without serum) [µM]	K a, association constant for formation of HSA-ruthenium(II) polypyridyl complex adducts [2]	relative ruthenium accumulation in cells (4T1 cells [3])	τ, luminescence lifetime ([4]; air-equilibrated conditions) [ns]	φ, quantum yield of luminescence ([4]; air-equilibrated conditions)	τ, luminescence lifetime ([4]; deoxygenated conditions) [µs]	φ, quantum yield of luminescence ([4]; deoxygenated conditions)	luminescence of cells (flow cytometry) (4T1 cells [6])
–	–	Cc1ccnc(-c2cc(C)ccn2)c1.[Ru+2].c1ccc(-c2ccnc3c2ccc2c(-c4ccccc4)ccnc23)cc1.c1ccc(-c2ccnc3c2ccc2c(-c4ccccc4)ccnc23)cc1 [[Ru(dip)2(CH3bpy-CH3)]^2+]	9.32 ± 1.37	4.9 ± 0.3	1.24 ± 0.06 ×10^5 M^−1	–	–	–	–	–	–
–	–	Cc1ccnc(-c2cc(C(=O)[O-])ccn2)c1.[Ru+2].c1ccc(-c2ccnc3c2ccc2c(-c4ccccc4)ccnc23)cc1.c1ccc(-c2ccnc3c2ccc2c(-c4ccccc4)ccnc23)cc1 [[Ru(dip)2(CH3bpy-COO)]^+]	13.9 ± 3	8.66 ± 1.47	1.17 ± 0.04 ×10^5 M^−1	much smaller accumulation than the rest of the studied complexes	–	–	–	–	–
–	–	[Ru+2].c1ccc(-c2ccccn2)nc1.c1ccc(-c2ccnc3c2ccc2c(-c4ccccc4)ccnc23)cc1.c1ccc(-c2ccnc3c2ccc2c(-c4ccccc4)ccnc23)cc1 [[Ru(dip)2(bpy)]^2+]	13.6 ± 1.75	6.79 ± 1.09	0.78 ± 0.02 ×10^5 M^−1	–	–	–	–	–	–
–	–	O=[N+]([O-])c1nccn1CCCc1ccnc(-c2ccccn2)c1.[Ru+2].c1ccc(-c2ccnc3c2ccc2c(-c4ccccc4)ccnc23)cc1.c1ccc(-c2ccnc3c2ccc2c(-c4ccccc4)ccnc23)cc1 [[Ru(dip)2(bpy-NitroIm)]^2+]	18.8 ± 1.29	10.6 ± 1.05	1.10 ± 0.06 ×10^5 M^−1	–	810 ± 10	0.0103 ± 0.0004	1.91 ± 0.01	0.0341 ± 0.0004	–
0.0472	0.0076	[Ru(dip)2(1,3-dicyclohexyl-1-[4-carbonyl-(4′-methyl-2,2′-bipyridyl)]-urea)]Cl2 [[Ru(dip)2(CH3bpy-DCU)]^2+]	9.01 ± 1.33	4.71 ± 0.18	0.98 ± 0.03 ×10^5 M^−1	highest accumulation	–	–	–	–	highest luminescence
